Source: patent US9114086B2, “Coated tablets of eszopiclone” (Sunovion Pharmaceuticals Inc., priority 2009, dated 2015)

Tests used:
[1] = Instantaneous dissolution of coated tablets in 5% human saliva solution, LC/MS/MS; type: physicochemical
Source text: A typical procedure for preparing the instantaneous dissolution solutions of coated tablets is described as follows: a tablet comprising a core and a film coating—in this case a coated eszopiclone tablet—is randomly selected, and then placed into a basket sinker (e.g., Hanson Research Part # ENMISC, BSK008-JP 8 mesh, 0.76″ L×0.41″ W) with long handle (made from stainless steel tubing). The basket is then immersed in dissolution diluent (e.g., 5% human saliva solution) in vial 1 for 2-5 seconds, then moved to vial 2 for 2-5 seconds dipping and so on with the same tablet. The dissolution diluents (e.g., 5% human saliva solution in water) can be prepared by mixing thoroughly about 50 mL of normal human saliva and about 950 mL of water in a suitable container. About 5 mL of the 5% human saliva solution is then pipetted into several scintillation vials (approximately 20 mL volume). This procedure has been employed with tablets coated with about 2-4% coating by weight
Alternatively, the dipping experiment described above may be carried out by immersing the tablet in the basket in dissolution diluents (e.g., about 5% human saliva solution in water) in vial 1, moving the basket up and down for about 2-5 seconds at a speed of approximate 1 dip every two seconds; remove the basket from the diluent; take a sample of the diluent; re-immerse the tablet in the same vial. Continue the experiment similarly to collect samples until the tablet disintegrates or the preselected time course is completed, whichever comes first. In this embodiment, a new tablet is used in each vial. The experiment is repeated as described for additional nine or ten tablets (total of 10 tablets). The concentration of active ingredient, e.g., eszopiclone, in the sample solutions is then determined using LC/MS/MS (ESI mode, positive MRM scan type). The dissolution instantaneous profile of the tablets is constructed by plotting logarithmic concentration of eszopiclone versus time in seconds.
Another typical procedure for preparing the instantaneous dissolution solutions of coated tablets is described as follows: a number of tablets comprising a core and a film coating—in this case coated eszopiclone tablets—are transferred into basket sinkers and into a series of vials containing the dissolution diluents. The basket is then immersed in dissolution diluents (e.g., 5% human saliva solution in water) in vial 1 for 5 seconds, in vial 2 for 10 seconds, in vial 3 for 15 seconds dipping and so on with the series of tablets. The dissolution diluents (e.g., 5% human saliva solution in water) can be prepared by mixing thoroughly 50 mL of normal human saliva and 950 mL of water in a suitable container. About 5 mL of the 5% human saliva solution is then pipetted into several scintillation vials (approximately 20 mL volume). This procedure has been employed with tablets coated with 3-8% coating by weight.
In each scenario above, the concentration of core material, e.g., eszopiclone, the active ingredient in the sample solutions, is determined using LC/MS/MS (ESI mode, positive MRM scan type). The dissolution instantaneous profile of the tablets is constructed by plotting logarithmic concentration of eszopiclone versus time in seconds.
Described herein are instantaneous dissolution methods comprising a step using a LC/MS/MS technique to measure the concentration of the active ingredient in the instantaneous dissolution solution. Specifically, the LC/MS/MS procedure includes: centrifuge samples from above instantaneous dissolution solution at 6000×g for 5 minutes (if sample appears cloudy) to obtain clear solution; take out supernatant or clear solution and load into HPLC auto samplers. […]

[2] = Sample solution stability (short term), HPLC-MS/MS method validation; type: physicochemical; settings: stored at room temperature
Description: Described herein are instantaneous dissolution methods comprising a step using a LC/MS/MS technique to measure the concentration of the active ingredient in the instantaneous dissolution solution. Specifically, the LC/MS/MS procedure includes: centrifuge samples from above instantaneous dissolution solution at 6000×g for 5 minutes (if sample appears cloudy) to obtain clear solution; take out supernatant or clear solution and load into HPLC auto samplers. If the concentration of the active ingredient is above the upper calibration range (100 ng/mL), the sample solution will go through further dilution, for instance, by pipetting 100 μL of the centrifuged sample solution into 4.9 mL of sample diluents; If dilution sample is still above the calibration range, a serial dilution can be made with the dilution solution containing Internal Standard. Final diluted sample concentration should fall into the calibration range.
A summary of the HPLC-MS/MS method validation results can be found in the table below: […]

Compound: CN1CCN(C(=O)O[C@H]2c3nccnc3C(=O)N2c2ccc(Cl)cn2)CC1 [Eszopiclone, (S)-(6-(5-chloro-2-pyridyl)-5-[(4-methyl-1-piperazinyl)carbonyloxy]-7-oxo-6,7-dihydro-5H-pyrrolo[3,4-b]pyrazine)]
- Mean, % dissolved results ([1]; Time 5 seconds): 5.317%
- Mean, % dissolved results ([1]; Time 10 seconds): 6.875%
- Mean, % dissolved results ([1]; Time 15 seconds): 7.461%
- Mean, % dissolved results ([1]; Time 20 seconds): 14.144%
- Mean, % dissolved results ([1]; Time 25 seconds): 12.222%
- Mean, % dissolved results ([1]; Time 30 seconds): 16.625%
- Mean, % dissolved results ([1]; Time 35 seconds): 22.404%
- Mean, % dissolved results ([1]; Time 40 seconds): 14.658%
- Mean, % dissolved results ([1]; Time 45 seconds): 14.989%
- Mean, % dissolved results ([1]; Time 50 seconds): 12.477%
- Sample solution stability (short term) [2]: Sample solutions are stable for 8 hours
